Data from patent publication US20210251228A1, “METHODS FOR REPELLING DROSOPHILA SPECIES USING 2-PENTYLFURAN” (The United States of America, as represented by the …, priority 2020, published 2021).

Legend:
Format in all cases: in vivo
Drosophila melanogaster = experiment: Two-choice bioassay: attraction to apple cider vinegar traps; conditions: 20 h
Description: Two-Choice Bioassay with Drosophila melanogaster: The two-choice assay (N=5) was conducted with an arena design using a dome cage (30 cm W×30 cm L×30 cm H; shop.bugdorm.com) as described in Cha et al. (2012) to evaluate the effect of 2-pentylfuran on D. melanogaster, vinegar fly, attraction to apple cider vinegar, a known attractant. The same gate cup trap design was used as described above in Multiple-Choice Bioassay section. Both traps had 20 ml of apple cider vinegar with soap. […] A cotton ball (3 cm diameter) soaked with distilled water was placed in the center of the arena to provide water to D. melanogaster. . Adult flies (˜50, roughly 1:1 male: female ratio, 7-10 days old) were released in each arena. The number of flies inside treatment and control traps was counted after 20 h.
(§1) Statistical Analyses: Trap catch data from multiple-choice assay and two-choice assay were analyzed in a randomized block design with block as a random factor and different EAD-active compounds as a fixed factor using Poisson distribution with log link function and maximum likelihood estimation (Proc Glimmix, SAS Institute, SAS/STAT 9.2 User's Guide, Second Edition, 2009, SAS Institute Inc., Cary, N.C.). […]

Drosophila suzukii [1] = experiment: Field test 2 with known 2-pentylfuran release rate: SWD infestation of field raspberries; conditions: 14.18 mg/h from two sachets, 48 h, N=15
Description: Field test 2 with known 2-pentylfuran release rate: We evaluated the effect of a known release rate of 2-pentylfuran on SWD infestation using 15 small plots of primocane raspberries (each plot=three 7 m rows of Heritage raspberries with 2.4 m between rows and with approximately 11 raspberries planted within each row) planted at different sites on research farms at Cornell AgriTech (plots separated by at least 0.5 km). The plantings were established in 2018 and the trial was conducted in the fall of 2019 as ripe raspberries were present along with high levels of SWD infestations in the area. At each plot we identified two fruiting canes (one for 2-pentylfuran treatment and one for control) that had large green fruit present separated by at least 3 m. After hand removal of any pink or ripe fruit, on 12 Sep. […] Ripe berries were removed from the canes, counted, weighed, placed in rearing cups (540 ml deli cups with approximately 1 cm of water agar at base with a perforated lid), and placed in a walk-in growth chamber (25° C., 55% r.h., 16:8 L:D) for 6 days at which time SWD were enumerated (mostly pupae, a few large larvae). Fruits from canes that were collected to estimate the background level of SWD infestation were evaluated for SWD infestation using the same method as for the canes used to test 2-pentylfuran. […]

Drosophila suzukii [2] = experiment: Multiple-choice bioassay: EAD-active compound added to 4-component SWD lure in gated cup traps
Description: Multiple-Choice Bioassay: The multiple choice assay (N=8) was conducted with an arena design using a dome cage (60 cm W×60 cm L×60 cm H; BugDorm-2120 Insect tent; shop.bugdorm.com) as described in Cha et al. 2018b (Cha, D. H., et al., Environ. Entomol., 47: 946-950 (2018b)) to evaluate the effect of the individual EAD-active compounds (FIG. 1) on SWD attraction to previously identified 4-component SWD lure (Cha et al. 2012; Cha, D. H., et al., Pest Manag. Sci., 70: 324-331 (2014); Cha, D. H., et al., Environ. Entomol., 46: 907-915 (2017)). Among 18 EAD-active compounds in FIG. 1, acetoin, 1-hexanol, isoamyl acetate, 2-methylbutyl acetate, and 2-phenylethanol were previously tested for their behavioral effects (Cha et al. 2012, 2014) and not considered in this study. Therefore, we compared 13 EAD-active compounds in this study. Within each arena, 14 traps were positioned in a circle (40 cm diameter) at equal distance with each trap 9 cm apart along the circumference. We used an aluminum foil-covered 100-ml glass beaker with a cut centrifuge vial (0.7 cm diameter) inserted in the foil for SWD entry, as a trap (Cha et al. 2012). All 14 traps had the SWD lure comprised of acetic acid, ethanol, acetoin, and methionol. Acetic acid and ethanol were released from a 20 ml solution of 4% acetic acid+8% ethanol with soap, presented as a drowning solution in each trap. Acetoin (1 ml of 50% acetoin in water) and methionol (0.5 ml neat methionol) were individually released from two 1.5-ml vials with 3-mm hole on the lid with a piece of cotton as described in Cha et al. 2014. One of these 14 traps served as a control (with the 4-component SWD lure only) and the remaining 13 traps had one of the 13 EAD-active compounds added to the SWD-lure, loaded as described in Cha et al. 2012 and released from a 1.5-ml vial with 3-mm hole with a piece of cotton. […] The number of flies inside treatment and control traps was counted after 20 h.
as §1, with “N.C.). Oviposition data from (1) laboratory dose-response test, (2) semi-field cage choice test, and (3) first and second field experiments were also analyzed in a randomized block design with block as a random factor and different 2-pentylfuran treatments as a fixed factor using Poisson distribution with log link function and maximum likelihood estimation.” for “N.C.).”

SMILES: CCCCCc1ccco1 [2-pentylfuran]
- effect on D. melanogaster attraction to apple cider vinegar (Drosophila melanogaster; 2-pentylfuran 10 mg/h sachet in gated trap, N=5): significantly reduced
- number of D. melanogaster captured in traps baited with apple cider vinegar and 2-pentylfuran (Drosophila melanogaster; among five replications, 10 mg/h, 50~67 in ACV-only traps): one
- reduction of SWD infestation per berry relative to control (Drosophila suzukii [1]): 56%
- reduction of trap catches of SWD (Drosophila suzukii [2]; SWD lure + 2-pentylfuran vs SWD lure only (62 SWD/trap)): 98%
- negative effect on SWD attraction to the SWD lure compared with 1-octen-3-ol (Drosophila suzukii [2]; multiple-choice, 20 h, N=8): significantly stronger than 1-octen-3-ol
- effect on SWD attraction to (catch in traps baited with) the 4-component SWD lure (Drosophila suzukii [2]; one compound added to SWD lure, 14 traps per arena, flies counted after 20 h, N=8): greatest reduction
- trap catch of SWD (Drosophila suzukii [2]; trap with SWD lure + 2-pentylfuran, 20 h): 1 SWD/trap
